# Measurements from patent US5143916A, “Naphthylpiperazines useful as 5-HT1A receptor ligands” (Adir et Compagnie, priority 1989, dated 1992).
# Key:
# [1] = Antihypertensive activity: arterial blood pressure and heart rate in anesthetized mongrel dogs (i.v.); format: in vivo
# Description: Mongrel dogs (male and female) are anesthetized with phenobarbital (30 mg/kg i.v.) and then placed in artificial respiration (Bird Mark VII respirator). Arterial blood pressure is measured by means of a catheter placed in the abdominal aorta via the femoral artery. This catheter is connected to a pressure cell (Statham® R23 D6) linked to a recorder.
# Heart rate is measured by means of a Gould Biotach®.
# Sympathetic nervous activity is recorded from the renal nerve by means of a silver electrode. The amplified signal is visualized on an oscilloscope (Tektronix 5115®) and then measured in μV by means of a Gould integrator.
# [2] = dog, in vivo; cited from earlier work
# 5-HT1A receptors = conditions: European Journal of Pharmacology, (1988), 149, p. 213-223; cited from earlier work
smiles,measurement,setting,value
"O=C(NCCN1CCN(c2cccc3c2OC[C@H](CO)O3)CC1)c1ccc(F)cc1 (racemic) [Flesinoxan, racemic]",Effect on arterial blood pressure,[1]; 10 μg/kg i.v.,0 mm/Hg
same,Effect on heart rate,[1]; 10 μg/kg i.v.,0 Beats/min.
same,Effect on heart rate,[1]; 30 μg/kg i.v.,0 Beats/min.
"O=C(NCCN1CCN(c2cccc3c2OC[C@H](CO)O3)CC1)c1ccc(F)cc1 (single isomer, unassigned) [Flesinoxan, (+) isomer]",Relative activity of flesinoxan isomers,[2],the more active isomer
O=C(NCCN1CCN(c2cccc3c2OC[C@H](CO)O3)CC1)c1ccc(F)cc1 [flesinoxan],"5-HT1A receptor agonist activity, antihypertensive properties",5-HT1A receptors,antihypertensive properties due to its 5-HT1A receptor agonist activity
